# Assay results reported in patent US8609636B2, “Oxime derivatives as sphingosine 1-phosphate (S1P) receptor modulators” (Allergan, Inc., priority 2010, dated 2013).
# pEC50: −log10 of the molar value.
# Biological target: T1, human S1P1 receptor (Homo sapiens, UniProt P21453)
# T1 construct: expressed in transfected cells; membranes used
# Assay: GTP γ35S binding assay for S1P1 activity
# Type: biochemical
# Conditions: activity potency, S1P1 receptor from GTP γ35S binding; membranes, test range 0.08 to 5,000 nM
# Method: Compounds were synthesized and tested for S1P1 activity using the GTP γ^35S binding assay. These compounds may be assessed for their ability to activate or block activation of the human S1P1 receptor in cells stably expressing the S1P1 receptor.
# GTP γ^35S binding was measured in the medium containing (mM) HEPES 25, pH 7.4, MgCl2 10, NaCl 100, dithitothreitol 0.5, digitonin 0.003%, 0.2 nM GTP γ^35S, and 5 μg membrane protein in a volume of 150 μl. Test compounds were included in the concentration range from 0.08 to 5,000 nM unless indicated otherwise. Membranes were incubated with 100 μM 5′-adenylylimmidodiphosphate for 30 min, and subsequently with 10 μM GDP for 10 min on ice. Drug solutions and membrane were mixed, and then reactions were initiated by adding GTP γ^35S and continued for 30 min at 25° C. Reaction mixtures were filtered over Whatman GF/B filters under vacuum, and washed three times with 3 mL of ice-cold buffer (HEPES 25, pH7.4, MgCl2 10 and NaCl 100). Filters were dried and mixed with scintillant, and counted for ^35S activity using a β-counter. Agonist-induced GTP γ^35S binding was obtained by subtracting that in the absence of agonist. Binding data were analyzed using a non-linear regression method. In case of antagonist assay, the reaction mixture contained 10 nM S1P in the presence of test antagonist at concentrations ranging from 0.08 to 5000 nM.
# T1 sequence (P21453 whole entry): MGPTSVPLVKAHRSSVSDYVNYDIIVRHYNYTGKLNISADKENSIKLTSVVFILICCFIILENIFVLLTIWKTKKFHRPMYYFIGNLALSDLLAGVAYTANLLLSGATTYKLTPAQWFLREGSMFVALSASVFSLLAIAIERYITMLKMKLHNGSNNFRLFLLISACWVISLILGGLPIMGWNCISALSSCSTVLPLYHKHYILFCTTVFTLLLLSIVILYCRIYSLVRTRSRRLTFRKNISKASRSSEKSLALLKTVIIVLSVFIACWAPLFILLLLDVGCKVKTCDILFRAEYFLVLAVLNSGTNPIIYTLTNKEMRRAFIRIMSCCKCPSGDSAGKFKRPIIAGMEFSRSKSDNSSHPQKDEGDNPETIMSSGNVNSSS
row,pEC50,SMILES
1,6.67,"C/C(=N\OCC(Oc1ccc(C)c(C)c1)c1cccc(Cl)c1)c1ccc(CNCCC(=O)O)cc1 (stereo not shown) [Compound 14, 3-[(4-{(1E)-N-[2-(3-chlorophenyl)-2-(3,4-dimethylphenoxy)ethoxy]ethanimidoyl}benzyl)amino]propanoic acid]"
2,8.08,"C/C(=N\OCc1ccc(CNCCCP(=O)(O)O)cc1)C(Sc1ccc(C)c(C)c1)c1cccc(Cl)c1 (stereo not shown) [Compound 10, {3-[(4-{[({(1E)-2-(3-chlorophenyl)-2-[(3,4-dimethylphenyl)thio]-1-methylethylidene}amino)oxy]methyl}benzyl)amino]propyl}phosphonic acid]"
3,7.94,"C/C(=N\OCC(Oc1ccc(C)c(C)c1)c1cccc(Cl)c1)c1ccc(CNCCCP(=O)(O)O)cc1 (stereo not shown) [Compound 15, {3-[(4-{(1E)-N-[2-(3-chlorophenyl)-2-(3,4-dimethylphenoxy)ethoxy]ethanimidoyl}benzyl)amino]propyl}phosphonic acid]"
4,7.81,"C/C(=N\OCC(Cc1ccc(C)c(C)c1)c1cccc(Cl)c1)c1ccc(CNCCC(=O)O)cc1 (stereo not shown) [Compound 3, 3-[(4-{(1E)-N-[2-(3-chlorophenyl)-3-(3,4-dimethylphenyl)propoxy]ethanimidoyl}benzyl)amino]propanoic acid]"
5,8.45,"C/C(=N\OCC(Cc1ccc(C)c(C)c1)c1cccc(Cl)c1)c1ccc(CNCCCP(=O)(O)O)cc1 (stereo not shown) [Compound 4, {3-[(4-{(1E)-N-[2-(3-chlorophenyl)-3-(3,4-dimethylphenyl)propoxy]ethanimidoyl}benzyl)amino]propyl}phosphonic acid]"
6,7.36,"C/C(=N\OCC(Cc1ccc(C)c(C)c1)c1cccc(C)c1)c1ccc(CNCCC(=O)O)cc1 (stereo not shown) [Compound 1, 3-[(4-{(1E)-N-[3-(3,4-dimethylphenyl)-2-(3-methylphenyl)propoxy]ethanimidoyl}benzyl)amino]propanoic acid]"
7,7.63,"C/C(=N\OCC(Cc1ccc(C)c(C)c1)c1cccc(C)c1)c1ccc(CNCCCP(=O)(O)O)cc1 (stereo not shown) [Compound 2, {3-[(4-{(1E)-N-[3-(3,4-dimethylphenyl)-2-(3-methylphenyl)propoxy]ethanimidoyl}benzyl)amino]propyl}phosphonic acid]"
8,9.06,"C/C(=N\OCc1ccc(CNCCCP(=O)(O)O)cc1)C(Cc1ccc(C)c(C)c1)c1cc(F)cc(F)c1 (stereo not shown) [Compound 6, [3-({4-[({[(1E)-2-(3,5-difluorophenyl)-3-(3,4-dimethylphenyl)-1-methylpropylidene]amino}oxy)methyl]benzyl}amino)propyl]phosphonic acid]"
9,8.66,"C/C(=N\OCc1ccc(CNCCCP(=O)(O)O)cc1)C(Cc1ccc(C)c(C)c1)c1cccc(Cl)c1 (stereo not shown) [Compound 5, [3-({4-[({[(1E)-2-(3-chlorophenyl)-3-(3,4-dimethylphenyl)-1-methylpropylidene]amino}oxy)methyl]benzyl}amino)propyl]phosphonic acid]"
10,8.17,"C/C(=N\OCc1ccc(CNCCC(=O)O)cc1)C(Cc1ccc(C)c(C)c1)c1cc(F)cc(F)c1 (stereo not shown) [Compound 7, 3-({4-[({[(1E)-2-(3,5-difluorophenyl)-3-(3,4-dimethylphenyl)-1-methylpropylidene]amino}oxy)methyl]benzyl}amino)propanoic acid]"
